Patent publication US20230357271A1, “MACROCYCLIC COMPOUND” (Asahi Kasei Pharma Corporation, priority 2020, published 2023)

Experiments:
[1] = target: human IRAK-4 (Homo sapiens (Human), UniProt Q9NWZ3); assay: Measurement of human IRAK-4 inhibitory activity (TR-FRET); assay type: biochemical; details: 1 nM IRAK-4, 0.5 µM peptide substrate, 10 µM ATP, 23° C., 30 minutes
Experimental: For the measurement of the activity of the human IRAK-4 (Invitrogen, Cat. PV3362), phosphorylation of the IRAK-4 peptide substrate (biotin-KKKKRFSFKKSFKC) by the enzyme in the presence of 10 µM ATP (Sigma-Aldrich, Cat. A7699) was measured by the TR-FRET method. The enzymatic reaction was performed in a reaction buffer containing 50 mM HEPES (pH 7.2), 1 mM DTT, 0.1 mM Na3VO4, 5 mM MgCl2, 1 mM MnCl2, and 0.1% bovine serum albumin. For the measurement of the IRAK-4 inhibitory activity, a test compound was added to the reaction buffer containing 1 nM IRAK-4, 0.5 µM peptide substrate, and 10 µM ATP, and the mixture was incubated at 23° C. for 30 minutes. Then, a detection solution containing an antibody labeled with europium cryptate (0.3 µg/mL, the antibody was prepared by using the IRAK-4 peptide substrate as the antigen), streptavidin-XL665 (2 µg/mL, CisBio, Cat. 610SAXLB), 50 mM HEPES (pH 7.2), 0.1% BSA, 120 mM KF, and 66.7 mM EDTA (all the concentrations of the reagents are final concentrations) was added to terminate the reaction, and then the mixture was further incubated at 23° C. for 60 minutes. Fluorescence intensity was measured at wavelengths of 665 nm and 620 nm with a microplate reader, and the enzymatic activity was calculated as the ratio of fluorescence intensities at 665 nm and 620 nm (665 nm/620 nm).
When the measurement was performed in multiplicate, the results are represented with average values.

[2] = system: human acute monocytic leukemia cell strain THP-1; assay: LPS-stimulated TNFα production inhibition test using THP-1 cells; assay type: cell-based; details: LPS 2.5 ng/mL, TNFα by HTRF
Experimental: By the THP-1 assay, influence of a test compound on the TNFα production induced by LPS stimulation can be evaluated. The THP-1 cells (ATCC, Cat. TIB-202) were inoculated on a 96-well plate at a density of 1 × 10^5 cells/160 µL/well, a test compound was added in a volume of 20 µL, and the plate was incubated at 37° C. for 1 hour in a 5% CO2 incubator. Then, LPS in a volume of 20 µL (final concentration 2.5 ng/mL, Sigma, Cat. L2630) was added, and the plate was further incubated for 4 hours. After the incubation, the plate was centrifuged, and 100 µL of the supernatant was taken from each well, and used for evaluation of the amount of TNFα using HTRF (Cisbio, Cat. 62TNFPEB). In the measurement of the amount of TNFα, the supernatant was diluted twice with the medium, and then added to wells of a 384-well plate in a volume of 10 µL, then anti-TNFα-cryptate (5 µL), and anti-TNFα-XL665 (5 µL) were added, and the plate was left standing overnight. The fluorescence intensity ratio for the wavelengths of 620 and 665 nm (620 nm/665 nm) was measured with a microplate reader, and the amount of TNFα in the supernatant was calculated by using a calibration curve. The TNFα production suppression ratio observed with no addition of LPS was defined to be 100%, the TNFα production suppression ratio observed with no addition of the test compound was defined to be 0%, and IC50 of the test compound was calculated by using the 4-parameter logistic model of the data analysis software XLfit (ID Business Solutions Ltd.).
When the measurement was performed in multiplicate, the results are represented with average values. The values were rounded to the fourth decimal place.

Sequence of human IRAK-4 (Q9NWZ3 whole entry): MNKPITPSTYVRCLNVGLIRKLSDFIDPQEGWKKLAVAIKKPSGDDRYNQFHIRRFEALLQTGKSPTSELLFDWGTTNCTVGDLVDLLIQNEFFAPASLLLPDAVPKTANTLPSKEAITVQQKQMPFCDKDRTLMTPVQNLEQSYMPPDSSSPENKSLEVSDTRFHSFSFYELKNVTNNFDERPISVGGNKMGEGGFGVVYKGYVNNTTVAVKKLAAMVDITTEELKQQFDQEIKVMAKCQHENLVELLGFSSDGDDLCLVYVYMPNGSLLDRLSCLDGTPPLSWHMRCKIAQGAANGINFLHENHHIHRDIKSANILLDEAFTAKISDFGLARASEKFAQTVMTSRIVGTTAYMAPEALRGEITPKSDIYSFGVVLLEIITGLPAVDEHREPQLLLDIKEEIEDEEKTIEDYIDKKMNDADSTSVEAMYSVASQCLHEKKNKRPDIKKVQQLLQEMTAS

SMILES | IC50 [1] [nM] | IC50 ([2]; Homo sapiens, THP-1, 4 h) [µM] | IC50 ([2]; 4 hours) [µM]
CCCOCc1ncc(-c2ccc3ncc4nc3c2OCCC(C)CNC(=O)[C@@H]2C[C@H](CCN2C)N4)cn1 (stereo partly drawn) [a-01-12] | 1.75 | 0.075 | –
Cc1ncc(-c2ccc3ncc4nc3c2OCCCNC(=O)[C@@H]2C[C@H](CCN2C)N4)cn1 [a-01-24] | 2.48 | 0.14 | –
CC1CNC(=O)[C@@H]2C[C@H](CCN2C)Nc2cnc3ccc(-c4cncnc4)c(c3n2)OC1 (stereo partly drawn) [a-01-36] | 8.86 | 0.182 | –
CCCOCc1ncc(-c2ccc3ncc4nc3c2OCCC(CC)CNC(=O)[C@@H]2C[C@H](CCN2C)N4)cn1 (stereo partly drawn) [a-01-37] | 4.52 | 0.189 | –
CCCOCc1ncc(-c2ccc3ncc4nc3c2OCCC(C)NC(=O)[C@@H]2C[C@H](CCN2C)N4)cn1 (stereo partly drawn) [a-01-43] | – | 0.237 | –
Cc1ncc(-c2ccc3ncc4nc3c2OCC(F)(F)CNC(=O)[C@@H]2C[C@H](CCN2C)N4)cn1 [a-01-28] | 4.04 | 0.149 | –
CN1CC[C@H]2C[C@H]1C(=O)NCC(C)(C)COc1c(-c3cncnc3)ccc3ncc(nc13)N2 [a-01-40] | 14.8 | 0.253 | –
CN1CC[C@H]2C[C@H]1C(=O)NCCCOc1c(-c3cnc(CO)nc3)ccc3ncc(nc13)N2 [a-01-32] | 1.59 | 0.165 | –
CCCOCc1ncc(-c2ccc3ncc4nc3c2OCC2(CC2)CNC(=O)[C@@H]2C[C@H](CCN2C)N4)cn1 [a-01-04] | 4.24 | 0.048 | –
CCCOCc1ncc(-c2ccc3ncc4nc3c2OCCC(F)CNC(=O)[C@@H]2C[C@H](CCN2C)N4)cn1 (stereo partly drawn) [a-01-31] | 3.42 | 0.163 | –
Cc1ncc(-c2ccc3ncc4nc3c2OCC(F)CNC(=O)[C@@H]2C[C@H](CCN2C)N4)cn1 (stereo partly drawn) [a-01-19] | 1.6 | – | 0.113
CN1CC[C@H]2C[C@H]1C(=O)NCCCOc1c(-c3cnc(COC4CCC4)nc3)ccc3ncc(nc13)N2 [a-01-13] | 2.95 | 0.076 | –
CCCOCc1ncc(-c2ccc3ncc4nc3c2OCC(F)COC(=O)[C@@H]2C[C@H](CCN2C)N4)cn1 (stereo partly drawn) [a-01-06] | 2.53 | 0.05 | –
CCCOCc1ncc(-c2ccc3ncc4nc3c2OCCCN(C)C(=O)[C@@H]2C[C@H](CCN2C)N4)cn1 [a-01-38] | 6.73 | 0.199 | –
CN1CC[C@H]2C[C@H]1C(=O)NCCCOc1c(-c3ccns3)ccc3ncc(nc13)N2 [a-01-01] | 1.63 | 0.028 | –
CCCOCc1ncc(-c2ccc3ncc4nc3c2OCCCOC(=O)[C@@H]2C[C@H](CCN2C)N4)cn1 [a-01-15] | 2.77 | 0.081 | –
CN1CCCOc2c(-c3cncnc3)ccc3ncc(nc23)N[C@H]2CCN(C)[C@@H](C2)C1=O [a-01-34] | 4.19 | 0.177 | –
CN1CC[C@H]2C[C@H]1C(=O)NCC(F)(F)COc1c(-c3cnc(CO)s3)ccc3ncc(nc13)N2 [a-01-22] | 0.89 | 0.118 | –
CN1CC[C@H]2C[C@H]1C(=O)NCCCOc1c(-c3cnc(CO)s3)ccc3ncc(nc13)N2 [a-01-11] | 0.79 | 0.073 | –
CN1CC[C@H]2C[C@H]1C(=O)NCC(F)(F)COc1c(-c3cncnc3)ccc3ncc(nc13)N2 [a-01-08] | 1.47 | 0.063 | –
CN1CC[C@H]2C[C@H]1C(=O)NCC1(CCC1)COc1c(-c3cncnc3)ccc3ncc(nc13)N2 [a-01-29] | 4.14 | 0.15 | –
CCCOCc1ncc(-c2ccc3ncc4nc3c2OCC(F)CNC(=O)[C@@H]2C[C@H](CCN2C)N4)cn1 (stereo partly drawn) [a-01-26] | 1.41 | – | 0.142
CCCOCc1ncc(-c2ccc3ncc4nc3c2OCCCC2CCCN2C(=O)[C@@H]2C[C@H](CCN2C)N4)cn1 (stereo partly drawn) [a-01-10] | 43.4 | 0.068 | –

Results, then the molecule that gave them:

IC50 [1] [nM] | IC50 ([2]; Homo sapiens, THP-1, 4 h) [µM] | IC50 ([2]; 4 hours) [µM] | SMILES
1.12 | 0.048 | – | Cc1ncc(-c2ccc3ncc4cc3c2OCC(F)CNC(=O)[C@@H]2C[C@H](CCN2C(C)C)N4)cn1 (stereo partly drawn) [a-02-13]
13.2 | 0.378 | – | CCCOCc1ncc(-c2ccc3ncc4cc3c2CCCCNC(=O)[C@@H]2C[C@H](CCN2C)N4)cn1 [a-02-24, (3^2S,3^4S)-3^1-Methyl-1^6-(2-(propoxymethyl)pyrimidin-5-yl)-2,5-diaza-1(3,5)-qunolina-3(4,2)-piperidinacyclononaphan-4-one]
0.81 | 0.065 | – | Cc1ncc(-c2ccc3ncc4cc3c2OCC(F)CNC(=O)[C@@H]2C[C@H](CCN2C)N4)cn1 (stereo partly drawn) [a-02-16]
1.76 | 0.066 | – | Cc1ncc(-c2ccc3ncc4cc3c2/C=C/CCNC(=O)[C@@H]2CC(CC(C)N2C)N4)cn1 (stereo in doubt) [a-02-17, (3^2S,E)-3^1,3^6-Dimethyl-1^6-(2-methylpyrimidin-S-yl)-2,5-diaza-1 (3,5)-qunolina-3(4,2)-piperidinacyclononaphan-8-en-4-one]
3.28 | 0.227 | – | COCc1ncc(-c2ccc3ncc4nc3c2OCCCNC(=O)[C@@H]2C[C@H](CCN2C)N4)cn1 [a-01-45]
2.23 | 0.064 | – | CN1CC[C@H]2C[C@H]1C(=O)OCCCOc1c(-c3cnc(CO)nc3)ccc3ncc(cc13)N2 [a-02-15]
5.63 | 0.023 | – | CN1CC[C@H]2C[C@H]1C(=O)OCCCOc1c(-c3cnc(COCC(O)C4CC4)nc3)ccc3ncc(cc13)N2 (stereo partly drawn) [a-02-04]
– | 0.5 | – | CCCOCc1ncc(-c2ccc3ncc4cc3c2OCCCNC(=O)[C@@H]2C[C@H](CCN2C)O4)cn1 [a-02-25, (3^2S,3^4S)-3^1-Methyl-1^6-(2-(propoxymethyl)pyrimidin-5-yl)-2,9-dioxa-5-aza-1 (3,5)-qunolina-3 (4,2)-piperidinacyclononaphan-4-one]
1.09 | 0.013 | – | CCCOCc1ncc(-c2ccc3ncc4cc3c2OCC(F)CNC(=O)[C@@H]2C[C@H](CCN2C)N4)cn1 (stereo partly drawn) [a-02-02, (3^2S,3^4S)-7-Fluoro-3^1-methyl-1^6-(2-(propoxymethyl)pyrimidin-5-yl)-9-oxa-2,5-diaza-1(3,5)-qunolina-3(4,2)-piperidinacyclononaphan-4-one]
0.93 | 0.047 | – | O=C1OCCCOc2c(-c3cnc(CO)nc3)ccc3ncc(cc23)N[C@H]2CCN[C@H]1C2 [a-02-12]
2.51 | 0.013 | – | O=C1OCCCOc2c(-c3cnc(CO[C@H]4CCC[C@@H]4O)nc3)ccc3ncc(cc23)N[C@H]2CCN[C@H]1C2 [a-02-03]
9.7 | 0.716 | – | Cc1ncc(-c2ccc3ncc4cc3c2OCC(F)CNC(=O)C2(C)CC(CCN2C)N4)cn1 (stereo not drawn) [a-02-23, 7-Fluoro-3^1,3^2-dimethyl-1^6-(2-methylpyrimidin-5-yl)-9-oxa-2,5-diaza-1 (3,5)-qunolina-3(4,2)-piperidinacyclononaphan-4-one]
– | 0.324 | – | Cc1ncc(-c2ccc3ncc4cc3c2CCCCNC(=O)[C@@H]2C[C@H](CC(C)N2C)N4)cn1 (stereo partly drawn) [a-02-22]
